The source of these data is patent US4839375A, “(Aryl or heteroaromatic methyl)-2,2'-bi-1H-imidazoles and their use as anti-hypertensive agents” (Merrell Dow Pharmaceuticals Inc., priority 1987, dated 1989).

Structures are written as SMILES.

This experiment concerns the target T1, dopamine β-hydroxylase (DBH) (Bos taurus, UniProt P15101).
T1 sequence (P15101 1-610): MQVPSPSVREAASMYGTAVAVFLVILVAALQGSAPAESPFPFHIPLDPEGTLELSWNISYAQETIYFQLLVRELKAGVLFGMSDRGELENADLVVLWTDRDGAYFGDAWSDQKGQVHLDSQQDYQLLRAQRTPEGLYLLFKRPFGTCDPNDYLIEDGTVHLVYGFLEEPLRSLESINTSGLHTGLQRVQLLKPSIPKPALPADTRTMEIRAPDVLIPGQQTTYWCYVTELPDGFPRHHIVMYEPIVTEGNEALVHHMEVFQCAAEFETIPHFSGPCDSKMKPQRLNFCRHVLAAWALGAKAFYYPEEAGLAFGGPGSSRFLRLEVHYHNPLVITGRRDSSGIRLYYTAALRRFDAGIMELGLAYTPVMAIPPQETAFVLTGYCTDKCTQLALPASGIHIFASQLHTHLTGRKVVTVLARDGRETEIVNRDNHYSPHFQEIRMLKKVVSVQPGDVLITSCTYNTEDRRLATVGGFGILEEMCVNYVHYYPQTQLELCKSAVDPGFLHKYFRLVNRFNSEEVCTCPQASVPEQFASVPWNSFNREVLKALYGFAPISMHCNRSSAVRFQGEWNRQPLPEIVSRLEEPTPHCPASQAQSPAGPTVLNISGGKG
The experiment is described as follows: DBH inhibition, oxygen uptake followed with a polarographic electrode and oxygen monitor. The conditions noted are these: ascorbate electron donor, tyramine substrate; pH 4.5 to 5.5, preferably pH 5.0; 20° C. to 40° C., preferably 37° C.; read-out: DBH inhibitory activity, IC50 (concentration at which the reaction is inhibited by 50%). It is filed as biochemical. On the procedure:
The DBH inhibitory properties of the compounds of this invention can readily be determined by standard and well-known procedures. For example, inhibition of DBH was determined by a procedure wherein enzymatic activity was ascertained in aqueous solution in the presence of molecular oxygen, an electron donor such as ascorbate, a substrate such as tyramine, an inhibitor, and the necessary cofactors for the enzyme at a pH of 4.5 to 5.5, preferably pH 5.0, and at a temperature of 20° C. to 40° C., preferably 37° C. The inhibitor was assayed over a range of concentrations. Each reaction was followed by measuring oxygen uptake as an indication of enzyme activity using a polarographic electrode and an oxygen monitor, following the method of S. May, et al., J. Biol. Chem., 256, 2258 (1981).

Consider `c1c[nH]c(-c2nc(Cc3ccsc3)c[nH]2)n1` [4-(3-thienylmethyl)-2,2'-bi-1H-imidazole], for which the IC50 turned out to be 8.8 µM.

In the case of `c1csc(Cn2ccnc2-c2ncc[nH]2)c1` [1-(2-Thienylmethyl)-2,2'-bi-1H-imidazole], the IC50 turned out to be 65.5 µM.

For the compound `c1c[nH]c(-c2nccn2Cc2ccsc2)n1` [1-(3-thienylmethyl)-2,2'-bi-1H-imidazole], the IC50 came to 29 µM.
